Measured values as given in US20190375708A1 (VenatoRx Pharmaceuticals, Inc., priority 2018, published 2019).

How the values were obtained:
[1] = system: HBV replication in HepAD38 cells; experiment: Anti-HBV replication assay in HepAD38 cells (QPCR of extracellular HBV DNA); assay type: cell-based, HBV (genotype D, serotype ayw); details: Hepatitis B virus, 168 h, 7 days incubation, extracellular HBV DNA by QPCR, read-out: Anti-HBV EC50
Summary of the method: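 Steps: seed HepAD38 overnight without tetracycline; refresh medium and add 1 log10 serial dilutions ([…]); incubate 7 days at 37 °C; quantify supernatant HBV DNA by QPCR; derive EC50 from a 4-parameter dose-response fit.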

[2] = In vitro cytotoxicity assay (MTT cell viability) in HepG2 cells; assay type: cell-based, human; details: human
Summary of the method: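 Parental HepG2 cells in EMEM + 10% FBS were exposed to compounds (8 half-log dilutions, 30 μM to 1.0 nM) for 7 days at 37 °C, 5% CO2. MTT was then added for 3-4 h, formazan dissolved in DMSO and absorbance read at 492 nm; CC50 came from 4-parameter fits against vehicle controls.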

Cc1cc(NC(=O)c2c(C)c(C(=O)C(=O)N[C@@H]3CCC[C@@H]3O)n(C)c2C)ccc1F [Example 146, N-(4-fluoro-3-methylphenyl)-5-(2-(((1R,2S)-2-hydroxxycyclopentyl)amino)-2-oxoacetyl)-1,2,4-trimethyl-1H-pyrrole-3-carboxamide]
EC50 [1]: < 0.05 µM | CC50 at 7 days [2]: > 30 µM

Cc1c(C(=O)Nc2ccnc(Cl)c2)c(C)n(C)c1C(=O)C(=O)NC1C2CC3CC1CC(O)(C3)C2 [Example 209, N-(2-chloropyridin-4-yl)-5-(2-(((1R,2s,3S,5s,7s)-5-hydroxyadamantan-2-yl)amino)-2-oxoacetyl)-1,2,4-trimethyl-1H-pyrrole-3-carboxamide]
EC50 [1]: < 0.05 µM | CC50 at 7 days [2]: > 30 µM

Cc1cc(NC(=O)c2c(C)c(C(=O)C(=O)NC(C)(C)CO)n3c2CCCC3)ccc1F [Example 436, N-(4-fluoro-3-methylphenyl)-3-(2-((1-hydroxy-2-methylpropan-2-yl)amino)-2-oxoacetyl)-2-methyl-5,6,7,8-tetrahydroindolizine-1-carboxamide]
EC50 [1]: 0.05 to 0.499 µM | CC50 at 7 days [2]: > 30 µM

Cc1nnc(CCNC(=O)C(=O)c2c(C)c(C(=O)Nc3ccc(F)c(C)c3)c(C)n2C)s1 [Example 356]
EC50 [1]: < 0.05 µM | CC50 at 7 days [2]: > 30 µM

Cc1cc(NC(=O)c2c(C)c(C(=O)C(=O)N[C@H](CO)[C@@H](C)O)n(C)c2C)cnc1F [Example 185, 5-(2-(((2R,3R)-1,3-dihydroxybutan-2-yl)amino)-2-oxoacetyl)-N-(6-fluoro-5-methylpyridin-3-yl)-1,2,4-trimethyl-1H-pyrrole--3 carboxamide]
EC50 [1]: 0.5 to 1 µM | CC50 at 7 days [2]: > 30 µM

Cc1cc(NC(=O)c2c(C)c(C(=O)C(=O)NC(C)(C)CO)n(CCO)c2C)ccc1F [Example 50, N-(4-fluoro-3-methylphenyl)-5-(2-((1-hydroxy-2-methylpropan-2-yl)amino)-2-oxoacetyl)-1-(2-hydroxyethyl)-2,4-dimethyl-1H-pyrrole-3-carboxamide]
EC50 [1]: > 1 µM | CC50 at 7 days [2]: > 30 µM

Cc1cc(NC(=O)c2c(C)c(C(=O)C(=O)NC(C)(C)C(N)=O)n(CCF)c2C)ccc1F [Example 117, 5-(2-((1-amino-2-methyl-1-oxopropan-2-yl)amino)-2-oxoacetyl)-N-(4-fluoro-3-methylphenyl)-1-(2-fluoroethyl)-2,4-dimethyl-1H-pyrrole-3-carboxamide]
EC50 [1]: 0.05 to 0.499 µM | CC50 at 7 days [2]: > 30 µM

Cc1cc(NC(=O)c2c(C)c(C(=O)C(=O)N[C@H]3CNC(=O)C34CC4)n(C)c2C)ccc1F [Example 710, (R)-N-(4-fluoro-3-methylphenyl)-1,2,4-trimethyl-5-(2-oxo-2-((4-oxo-5-azaspiro[2.4]heptan-7-yl)amino)acetyl)-1H-pyrrole-3-carboxamide]
EC50 [1]: < 0.05 µM | CC50 at 7 days [2]: > 30 µM

Cc1cc(NC(=O)c2c(C)c(C(=O)C(=O)NC3(c4noc(C(F)F)n4)CCC3)n(C)c2C)ccc1F [Example 153, 5-(2-((1-(5-(difluoromethyl)-1,2,4-oxadiazol-3-yl)cyclobutyl)amino)-2-oxoacetyl)-N-(4-fluoro-3-methylphenyl)-1,2,4-trimethyl-1H-pyrrole-3-carboxamide]
EC50 [1]: < 0.05 µM | CC50 at 7 days [2]: 5 to 30 µM

Cc1cnc(C(C)(C)NC(=O)C(=O)c2cc(C(=O)Nc3ccc(F)c(C)c3)c3n2CCCC3)s1 [Example 413, N-(4-fluoro-3-methylphenyl)-3-(2-((2-(5-methylthiazol-2-yl)propan-2-yl)amino)-2-oxoacetyl)-5,6,7,8-tetrahydroindolizine-1-carboxamide]
EC50 [1]: 0.05 to 0.499 µM | CC50 at 7 days [2]: > 30 µM

Cc1cc(NC(=O)c2c(Cl)c(C(=O)C(=O)N[C@@H](C)C(F)(F)F)n3c2CCC3)cnc1F [Example 574, (S)-6-chloro-N-(6-ffluoro-5-methylpyridin-3-yl)-5-(2-oxo-2-((1,1,1-trifluoropropan-2-yl)amino)acetyl)-2,3-dihydro-1H-pyrroliine-7-carboxamide]
EC50 [1]: 0.5 to 1 µM | CC50 at 7 days [2]: 5 to 30 µM
